Broadly, the IC50 is the concentration that gives 50% inhibition.

17 molecules from patent publication US20230373985A1 (Origenis Gmbh, priority 2020, published 2023) can be followed below.

Assay [1] has as its target T1, wt human NUAK1, full length (Homo sapiens, UniProt O60285).
T1 construct: 8 nM wt human NUAK1, full length (ThermoFisher/USA); purchased ThermoFisher
T1 sequence (O60285 1-661): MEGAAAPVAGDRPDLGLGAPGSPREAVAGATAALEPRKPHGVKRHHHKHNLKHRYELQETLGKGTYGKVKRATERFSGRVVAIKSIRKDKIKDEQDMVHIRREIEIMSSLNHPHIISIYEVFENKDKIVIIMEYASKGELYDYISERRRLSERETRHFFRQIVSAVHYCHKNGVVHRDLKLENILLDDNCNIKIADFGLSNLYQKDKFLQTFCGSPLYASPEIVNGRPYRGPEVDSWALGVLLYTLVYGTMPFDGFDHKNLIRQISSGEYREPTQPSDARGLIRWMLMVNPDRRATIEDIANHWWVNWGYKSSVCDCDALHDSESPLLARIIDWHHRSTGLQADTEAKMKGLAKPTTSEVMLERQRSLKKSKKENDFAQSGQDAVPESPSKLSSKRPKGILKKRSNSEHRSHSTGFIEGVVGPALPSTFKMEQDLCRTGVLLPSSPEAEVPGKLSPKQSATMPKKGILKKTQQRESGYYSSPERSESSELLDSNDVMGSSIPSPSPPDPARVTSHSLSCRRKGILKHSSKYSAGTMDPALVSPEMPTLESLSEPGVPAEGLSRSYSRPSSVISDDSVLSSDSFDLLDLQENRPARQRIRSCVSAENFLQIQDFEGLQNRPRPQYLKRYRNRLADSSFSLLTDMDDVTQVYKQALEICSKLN
As to the kind of experiment: TR-FRET LanthaScreen Eu Kinase Binding Assay, NUAK1. Conditions: read-out: IC50, Activity Toward NUAK1. As for the experimental part: The basic protocol for TR-FRET LanthaScreen Eu Kinase Binding Assay inhibitor studies were performed as follows. LanthaScreen Kinase Binding Assays (ThermoFisher/USA) to evaluate inhibitors were performed by addition of 5 μL of test compound in corresponding DMSO dilutions/5 μl of kinase/antibody mixture, 5 μL of tracer into 384 well small volume plates. After incubation for 1 hour at room temperature, plates were read. Data analysis of emission ratios was according LanthaScreen Eu Kinase Binding Assay protocol.
Kinase and assay components were adjusted to final concentrations according to kit protocol. For LRRK2: 5 nM wt human LRRK2, catalytic site, or G2019S human LRRK2, catalytic site (ThermoFisher/USA), 2 nM Eu-Anti-GST Antibody, 10 nM Kinase Tracer 236 in 1× Kinase Buffer A. For NUAK1: 8 nM wt human NUAK1, full length (ThermoFisher/USA), 2 nM Eu-Anti-His Antibody, 5 nM Kinase Tracer 236 in 1× Kinase Buffer A.
Background: Time-resolved FRET reads energy transfer from a long-lived donor to a nearby acceptor.

For assay [2], the target named is T2, wt human JAK1, catalytic site (Homo sapiens, UniProt P23458).
T2 construct: wt human JAK1, catalytic site; purchased ThermoFisher
T2 sequence (P23458 875-1153 limits assumed): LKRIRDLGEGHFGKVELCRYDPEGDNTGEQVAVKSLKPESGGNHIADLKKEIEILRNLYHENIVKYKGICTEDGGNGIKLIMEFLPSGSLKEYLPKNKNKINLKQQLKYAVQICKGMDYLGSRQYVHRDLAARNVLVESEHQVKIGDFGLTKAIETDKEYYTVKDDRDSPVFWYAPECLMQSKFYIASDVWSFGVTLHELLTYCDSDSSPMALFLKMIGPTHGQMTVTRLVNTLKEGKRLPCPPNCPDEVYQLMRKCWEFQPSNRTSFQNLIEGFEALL
The assay can be described thus: HTRF KinEASE assay, JAK1. The assay is classed as biochemical. The conditions noted are these: 2.5 μM ATP; read-out: IC50, Activity Toward JAK1. A digest of the protocol: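 Compounds in DMSO dilution were mixed with kinase, biotin-TK substrate and ATP and reacted for ≥30 min at room temperature. Detection reagents (antibody, streptavidin-XL665) were read 60 min later as HTRF, with emission ratios analysed per KinEASE protocol.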

In assay [3] the target is T3, wt human LRRK2, catalytic site (Homo sapiens, UniProt Q5S007).
T3 construct: 5 nM wt human LRRK2, catalytic site; purchased ThermoFisher
T3 sequence (Q5S007 970-2527 limits assumed): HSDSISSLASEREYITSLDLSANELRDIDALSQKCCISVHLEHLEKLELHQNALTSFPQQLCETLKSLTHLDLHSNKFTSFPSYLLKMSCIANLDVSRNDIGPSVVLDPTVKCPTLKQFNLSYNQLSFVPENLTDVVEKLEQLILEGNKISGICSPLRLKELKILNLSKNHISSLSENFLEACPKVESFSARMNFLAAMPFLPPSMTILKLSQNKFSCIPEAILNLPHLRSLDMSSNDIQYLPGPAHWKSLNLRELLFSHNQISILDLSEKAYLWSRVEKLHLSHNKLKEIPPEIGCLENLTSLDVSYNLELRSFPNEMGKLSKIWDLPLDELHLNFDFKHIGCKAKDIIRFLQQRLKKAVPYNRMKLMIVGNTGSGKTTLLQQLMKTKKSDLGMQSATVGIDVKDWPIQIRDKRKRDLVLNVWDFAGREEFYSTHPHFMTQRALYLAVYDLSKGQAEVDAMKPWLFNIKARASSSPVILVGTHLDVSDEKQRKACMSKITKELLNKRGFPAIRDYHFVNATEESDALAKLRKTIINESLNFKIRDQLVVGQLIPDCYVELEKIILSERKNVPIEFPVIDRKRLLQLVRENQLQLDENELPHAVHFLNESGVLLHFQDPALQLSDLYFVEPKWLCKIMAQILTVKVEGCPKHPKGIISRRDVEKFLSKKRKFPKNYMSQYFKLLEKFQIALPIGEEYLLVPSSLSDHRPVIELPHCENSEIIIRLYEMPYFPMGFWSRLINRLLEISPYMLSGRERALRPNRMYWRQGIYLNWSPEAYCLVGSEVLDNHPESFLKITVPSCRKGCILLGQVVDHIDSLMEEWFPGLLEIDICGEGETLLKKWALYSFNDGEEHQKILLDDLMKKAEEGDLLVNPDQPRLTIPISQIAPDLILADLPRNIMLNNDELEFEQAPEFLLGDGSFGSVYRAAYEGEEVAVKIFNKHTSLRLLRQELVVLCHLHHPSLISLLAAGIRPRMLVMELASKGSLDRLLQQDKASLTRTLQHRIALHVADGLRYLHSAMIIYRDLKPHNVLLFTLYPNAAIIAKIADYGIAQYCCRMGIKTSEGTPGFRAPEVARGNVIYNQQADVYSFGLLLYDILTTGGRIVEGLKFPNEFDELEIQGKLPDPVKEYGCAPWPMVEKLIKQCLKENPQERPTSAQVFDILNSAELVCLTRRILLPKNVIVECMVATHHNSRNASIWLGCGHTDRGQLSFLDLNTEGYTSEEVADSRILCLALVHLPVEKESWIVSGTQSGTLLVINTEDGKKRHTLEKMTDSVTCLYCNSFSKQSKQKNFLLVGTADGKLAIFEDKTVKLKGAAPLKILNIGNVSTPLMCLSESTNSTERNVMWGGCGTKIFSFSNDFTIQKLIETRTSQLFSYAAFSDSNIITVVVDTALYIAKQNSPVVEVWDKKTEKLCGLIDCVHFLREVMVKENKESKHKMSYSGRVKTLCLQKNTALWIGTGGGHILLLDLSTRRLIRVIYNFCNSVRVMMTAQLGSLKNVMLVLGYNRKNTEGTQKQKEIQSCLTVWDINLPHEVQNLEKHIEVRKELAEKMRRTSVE
The assay can be described thus: TR-FRET LanthaScreen Eu Kinase Binding Assay, LRRK2 wt. Conditions: one range stated for wt and G2019, read-out: IC50, Activity Toward LRRK2(Wt). A digest of the protocol:
(§1)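 Each kinase was incubated with compound, 2 nM europium-labelled antibody and Tracer 236 for one hour at room temperature before plate reading. LRRK2 wt and G2019S used 5 nM protein and 10 nM tracer; NUAK1 used 8 nM protein and 5 nM tracer.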

In assay [4] the target is T4, wt human TYK2, catalytic site (Homo sapiens, UniProt P29597).
T4 construct: wt human TYK2, catalytic site; purchased SignalChem
T4 sequence (P29597 897-1176 limits assumed): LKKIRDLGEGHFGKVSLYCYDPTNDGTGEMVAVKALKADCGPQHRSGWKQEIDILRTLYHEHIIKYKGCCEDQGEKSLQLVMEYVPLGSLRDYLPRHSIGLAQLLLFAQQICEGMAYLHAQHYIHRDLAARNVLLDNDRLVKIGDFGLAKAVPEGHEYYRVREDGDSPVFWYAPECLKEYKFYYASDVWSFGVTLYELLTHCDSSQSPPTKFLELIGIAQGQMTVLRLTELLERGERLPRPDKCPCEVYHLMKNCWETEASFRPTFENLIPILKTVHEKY
As to the kind of experiment: HTRF KinEASE assay, TYK2. Conditions: 1 μM ATP; read-out: IC50, Activity Toward TYK2. The assay is classed as biochemical. A digest of the protocol: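 Kinase reaction run at room temperature for at least 30 min: 2 nM TYK2 with 1 μM ATP, or 1 nM JAK2 with 100 μM ATP, each with 1 μM biotin-TK substrate. Phosphorylation detected by HTRF (60 min antibody/XL665) and evaluated from emission ratios.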

The target in assay [5] is T5, G2019S human LRRK2, catalytic site (Homo sapiens, UniProt Q5S007, G2019S).
T5 construct: G2019S human LRRK2, catalytic site; purchased ThermoFisher
T5 sequence (Q5S007 970-2527 G2019S limits assumed): as the sequence (Q5S007 970-2527 limits assumed) above, with G1050S counted along it
The assay can be described thus: TR-FRET LanthaScreen Eu Kinase Binding Assay, LRRK2 G2019S. The conditions noted are these: LRRK2(G2019); one range stated for wt and G2019; read-out: IC50, Activity Toward LRRK2(G2019). The procedure, abridged: as §1

For `CN1CCC(NC(=O)c2ccc(Nc3cn(-c4c(Cl)cccc4Cl)nc3C(N)=O)cc2)CC1` [compound 31, 1-(2,6-dichlorophenyl)-4-((4-((1-methylpiperidin-4-yl)carbamoyl)phenyl)amino)-1H-pyrazole-3-carboxamide], the IC50 lay within 100 to 1000 nM in assay [1]; 10 to 100 nM in assay [2]; 100 to 1000 nM in assay [3]; 10 to 100 nM in assay [4]; 100 to 1000 nM in assay [5].

With `CCc1nc(C(F)(F)F)nn1-c1ccc(Nc2cn(-c3c(F)cccc3F)nc2C(N)=O)cc1` [compound 284], the IC50 in assay [1] lay within 100 to 1000 nM; in assay [2] it was 100 to 1000 nM; in assay [3], 100 to 1000 nM; in assay [4] it was 10 to 100 nM; in assay [5], 100 to 1000 nM.

Regarding `Cc1ccnnc1-c1ccc(Nc2cn(-c3c(F)cccc3F)nc2C(N)=O)cc1` [compound 296, 1-(2,6-difluorophenyl)-4-((4-(4-methylpyridazin-3-yl)phenyl)amino)-1H-pyrazole-3-carboxamide], the IC50 in assay [1] lay within 100 to 1000 nM; in assay [2] it was 100 to 1000 nM; in assay [3], 100 to 1000 nM; in assay [4] it was 10 to 100 nM; in assay [5], 100 to 1000 nM.

With `CN(C)C1CCN(C(=O)c2ccc(Nc3cn(-c4c(Cl)cccc4Cl)nc3C(N)=O)cc2)C1` (stereo not shown) [compound 248, 1-(2,6-dichlorophenyl)-4-((4-(3-(dimethylamino)pyrrolidine-1-carbonyl)phenyl)amino)-1H-pyrazole-3-carboxamide], the IC50 in assay [1] lay in the range of 100 to 1000 nM; in assay [2], 10 to 100 nM; in assay [3], 100 to 1000 nM; in assay [4], 10 to 100 nM; in assay [5], 100 to 1000 nM.

`CN(C)CCn1cnnc1-c1ccc(Nc2cn(-c3c(Cl)cccc3Cl)nc2C(N)=O)cc1` [compound 214, 1-(2,6-dichlorophenyl)-4-((4-(4-(2-(dimethylamino)ethyl)-4H-1,2,4-triazol-3-yl)phenyl)amino)-1H-pyrazole-3-carboxamide]: the 50% inhibitory concentration (IC50) is 100 to 1000 nM in assay [1], 10 to 100 nM in assay [2] and < 10 nM in assay [4].

Turning to `NC(=O)c1nn(-c2c(Cl)cccc2Cl)cc1Nc1ccc(C(=O)N2CC[C@H](N3CCCC3)C2)cc1` [compound 332, (S)-4-((4-([1,3′-bipyrrolidine]-1′-carbonyl)phenyl)amino)-1-(2,6-dichlorophenyl)-1H-pyrazole-3-carboxamide], the IC50 in assay [1] is 100 to 1000 nM; in assay [2], 100 to 1000 nM; in assay [4] it was < 10 nM.

As for `CN1CCC(Oc2ccc(Nc3cn(-c4c(Cl)cccc4Cl)nc3C(N)=O)cc2)CC1` [compound 237, 1-(2,6-dichlorophenyl)-4-((4-((1-methylpiperidin-4-yl)oxy)phenyl)amino)-1H-pyrazole-3-carboxamide], the IC50 was 100 to 1000 nM in assay [1], 100 to 1000 nM in assay [2] and < 10 nM in assay [4].

Turning to `NC(=O)c1nn(-c2c(Cl)cccc2Cl)cc1Nc1cn[nH]c1` [compound 407, 4-((1H-pyrazol-4-yl)amino)-1-(2,6-dichlorophenyl)-1H-pyrazole-3-carboxamide], the IC50 in assay [1], in assay [2] and in assay [4] was 100 to 1000 nM in each case.

In the case of `NC(=O)c1nn(-c2c(F)cccc2F)cc1Nc1ccccn1` [compound 7, 1-(2,6-difluorophenyl)-4-(pyridin-2-ylamino)-1H-pyrazole-3-carboxamide], the IC50 in assay [1], in assay [3], in assay [4] and in assay [5] was 100 to 1000 nM each time.

Turning to `Cc1cc(Nc2cn(-c3c(F)cccc3F)nc2C(N)=O)ncn1` [compound 4, 1-(2,6-difluorophenyl)-4-((6-methylpyrimidin-4-yl)amino)-1H-pyrazole-3-carboxamide], the IC50 in assay [1], in assay [3], in assay [4] and in assay [5] was 100 to 1000 nM throughout.

Consider `CN1CCCN(C(=O)c2ccc(Nc3cn(-c4c(Cl)cccc4Cl)nc3C(N)=O)cc2)CC1` [compound 91, 1-(2,6-dichlorophenyl)-4-((4-(4-methyl-1,4-diazepane-1-carbonyl)phenyl)amino)-1H-pyrazole-3-carboxamide], for which the IC50 in assay [1] is 100 to 1000 nM; in assay [2], 10 to 100 nM; in assay [4], < 10 nM.

For `CN(C)[C@H]1CCN(C(=O)c2ccc(Nc3cn(-c4c(Cl)cccc4Cl)nc3C(N)=O)cc2)C1` [compound 314, (S)-1-(2,6-dichlorophenyl)-4-((4-(3-(dimethylamino)pyrrolidine-1-carbonyl)phenyl)amino)-1H-pyrazole-3-carboxamide], the figures for the IC50 in assay [1], in assay [2] and in assay [4] were 100 to 1000 nM, 10 to 100 nM and < 10 nM, respectively.

On to `CN(C)CCn1ccnc1-c1ccc(Nc2cn(-c3c(Cl)cccc3Cl)nc2C(N)=O)cc1` [compound 251, 1-(2,6-dichlorophenyl)-4-((4-(1-(2-(dimethylamino)ethyl)-1H-imidazol-2-yl)phenyl)amino)-1H-pyrazole-3-carboxamide], for which the IC50 is 100 to 1000 nM in assay [1], 100 to 1000 nM in assay [2] and 10 to 100 nM in assay [4].

In the case of `NC(=O)c1nn(-c2c(Cl)cccc2Cl)cc1Nc1ccc(OC2CCNCC2)cc1` [compound 424, 1-(2,6-dichlorophenyl)-4-((4-(piperidin-4-yloxy)phenyl)amino)-1H-pyrazole-3-carboxamide], the results for the IC50 in assay [1], in assay [2] and in assay [4] were 100 to 1000 nM, 100 to 1000 nM and 10 to 100 nM, respectively.

Turning to `Cc1nc2cc(Nc3cn(-c4c(F)cccc4Cl)nc3C(N)=O)ccc2n1C` [compound 44, 1-(2-chloro-6-fluorophenyl)-4-((1,2-dimethyl-1H-benzo[d]imidazol-5-yl)amino)-1H-pyrazole-3-carboxamide], the IC50 in assay [1] fell in the range of 100 to 1000 nM; in assay [2] it was 100 to 1000 nM; in assay [4], 10 to 100 nM.

On to `NC(=O)c1nn(-c2c(Cl)cccc2Cl)cc1Nc1ccc(-c2nc(C(F)(F)F)cn2CCO)cc1` [compound 338, 1-(2,6-dichlorophenyl)-4-((4-(1-(2-hydroxyethyl)-4-(trifluoromethyl)-1H-imidazol-2-yl)phenyl)amino)-1H-pyrazole-3-carboxamide], for which the IC50 in assay [1] was 100 to 1000 nM; in assay [2] it was 100 to 1000 nM; in assay [4], < 10 nM.

Consider `COCCc1ncnn1-c1ccc(Nc2cn(-c3c(Cl)cccc3Cl)nc2C(N)=O)cc1` [compound 327, 1-(2,6-dichlorophenyl)-4-((4-(5-(2-methoxyethyl)-1H-1,2,4-triazol-1-yl)phenyl)amino)-1H-pyrazole-3-carboxamide], for which the results for the half-maximal inhibitory concentration (IC50) in assay [1], in assay [2] and in assay [4] were 100 to 1000 nM, 10 to 100 nM and 10 to 100 nM, respectively.
